Several values for one entry are separate records, joined by “and”; a condition that tells them apart may be missing. Equal entries are not always repeated.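 Exposure lasted 48 hours, with cells grown in 96-well plates and compounds tested at five concentrations. Here, GI50 denotes the concentration required for 50% inhibition of growth. The concentration for full growth arrest is given as TGI.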
What follows are compounds tested on TK-10 renal (assay: inhibition of tumour cell growth, NCI panel, 48 h).
`COc1cc2oc3cc(=O)cc4oc(-c5ccccc5)cc(c2c2c1CCC(c1ccccc1)O2)c43` (configuration not stated) was tested, and the TGI was 83.4 µM. `c1cc2n(n1)CCN2` was tested, and the TGI was over 10000 µM. Compound `COc1cc(Nc2c(C#N)cnc3cc(OCCCN4CCN(C)CC4)c(OC)cc23)c(Cl)cc1Cl` has a GI50 of 0.469 µM and a TGI of 11.3 µM. `O=CN/C=C/c1cccc(O)c1` was tested, and the TGI was over 100 µM. `Nc1ccc2c(SCc3ccc([N+](=O)[O-])cc3)c3ccccc3nc2c1` was tested, and the TGI was 26.5 µM. Compound `COC1=CC(c2ccc[nH]2)=N/C1=C\c1[nH]c(C)c(C(=O)CCCCC(=O)NC(C)(C)C)c1C` has a GI50 of 1.39 µM and a TGI of 3.41 µM. `O=c1ccn(C2CC(O)C(CO)O2)c(=O)[nH]1` (configuration not stated) was tested, and the GI50 was over 5000 µM and the TGI was over 5000 µM. For `O=C(N/C(=C/c1ccc(Cl)cc1Cl)c1nc2ccccc2s1)c1ccccc1`, the TGI was 42.8 µM. In the case of `CCOC(=O)c1cc2c(n1Cc1cccc(OC)c1)-c1oncc1CCC2`, the GI50 is reported as 7 µM and the TGI is reported as over 100 µM. For `COc1c(O)cc2oc(-c3ccc(O)cc3)cc(=O)c2c1O`, the TGI was over 100 µM. In the case of `COc1cccc(-c2nn(-c3ccccc3)cc2-c2ccnc(NCCCNC(=O)Nc3ccc(Cl)c(Cl)c3)c2)c1`, the GI50 is reported as 4.51 µM and the TGI is reported as 17.1 µM. With `c1csc(-c2cn3nc(-c4c[nH]c5ccccc45)sc3n2)c1` the GI50 was 5.21 µM and the TGI was 33.5 µM. Work on `COc1cc2ccccc2oc1=O` yielded a TGI of over 100 µM. Compound `N#CCCN(CCCN(CCCN(C(=O)Nc1ccccc1)c1ccccc1)C(=O)Nc1ccccc1)C(=O)Nc1ccccc1` has a GI50 of over 100 µM and a TGI of over 100 µM.

The compounds below were run on U251 CNS (assay: inhibition of tumour cell growth, NCI panel, 48 h).
`C[C@]12CCc3sc(NCCc4ccccc4)nc3C1=CC[C@@H]1[C@@H]2CC[C@]2(C)C(=O)CC[C@@H]12` showed a GI50 of 4.97 µM and a TGI of over 100 µM. Work on `COc1cccc(C2=C(c3c(C)n(C)c4ccccc34)C(=O)NC2=O)c1` yielded a GI50 of over 25 µM and a TGI of over 25 µM. Work on `CCN(Cc1ccc(F)cc1)c1ccc(CO)c(F)c1` yielded a GI50 of 12.5 µM and a TGI of over 63 µM. Work on `O=C(Cn1c(=O)c(-c2ccccc2)nc2ccccc21)Nc1ccc(F)cc1` yielded a GI50 of 48 µM and a TGI of over 100 µM. `CN(C)CCNC(=O)c1cc([N+](=O)[O-])cc2c1Oc1ccccc1O2` gave a TGI of over 100 µM. `COc1cccc2c1C(=O)c1c(O)c3c(c(O)c1C2=O)CC(O)(C(O)CO)CC3OC1CC(N2CCOCC2)C(O)C(C)O1` (configuration not stated) was tested, and the GI50 was 0.0155 µM and the TGI was 1.26 µM and 1.05 µM. Compound `O=C1C(N2CC2)=C(N2CC2)C(=O)C(N2CC2)=C1N1CC1` has a GI50 of 0.275 µM and a TGI of 3.18 µM. `O=C(O)C1OC1(c1cccc(Cl)c1)c1ccccc1Cl` (configuration not stated) was tested, and the TGI was 25.4 µM. `CCCCC[C@H]1C/C=C2/C(=O)C=C[C@@H]2C/C=C\CCCC(=O)O[C@@H](CCCCC)C/C=C2/C(=O)C=C[C@@H]2C/C=C\CCCC(=O)O1` was tested, and the GI50 was 0.151 µM and the TGI was 0.473 µM. Work on `O=C(Nc1cccc(-n2cc(-c3ccncc3)c(-c3cc(O)cc(Cl)c3)n2)c1)Nc1ccc(Cl)c(C(F)(F)F)c1` yielded a GI50 of 1.72 µM and a TGI of 3.65 µM. Work on `COC1/C=C/C(C)C(C(C)C(OC)C(C)CCC(=O)C(C)C(C/C=C/N(C)C=O)OC)OC(=O)/C=C/C=C(\C)CC(OC)CC2=CC(=O)O[C@H](C2)C(C)C(OC)CC(OC)/C=C/C(C)C(OC)C1` (some centres not stated) yielded a GI50 of 0.0122 µM and a TGI of 0.0289 µM. Compound `CNCCCn1c2c(c3ccc([N+](=O)[O-])cc3c1=O)C(=O)c1cc(OC)cnc1-2` has a GI50 of 0.0364 µM and a TGI of 0.251 µM. With `C#CC1(O)C(COP(=O)(O)OC(COCCCCCCCCCCCCCCCCCC)COP(=O)(O)OCC2OC(n3cc(F)c(=O)[nH]c3=O)CC2O)OC(n2ccc(N)nc2=O)C1O` (configuration not stated) the GI50 was < 0.0428 µM and 0.177 µM and the TGI was 17.2 µM and 20.6 µM. For `COc1cc2oc3cc(=O)cc4oc(-c5ccccc5)cc(c2c2c1CCC(c1ccccc1)O2)c43` (configuration not stated), the TGI was over 100 µM. `c1cc2n(n1)CCN2` showed a TGI of 5740 µM. For `COc1cc(Nc2c(C#N)cnc3cc(OCCCN4CCN(C)CC4)c(OC)cc23)c(Cl)cc1Cl`, the GI50 was 3.1 µM and the TGI was 8.37 µM. For `O=CN/C=C/c1cccc(O)c1`, the TGI was over 83 µM. With `Nc1ccc2c(SCc3ccc([N+](=O)[O-])cc3)c3ccccc3nc2c1` the TGI was 38.1 µM. In the case of `COC1=CC(c2ccc[nH]2)=N/C1=C\c1[nH]c(C)c(C(=O)CCCCC(=O)NC(C)(C)C)c1C`, the GI50 is reported as 1.29 µM and the TGI is reported as 2.57 µM. `O=c1ccn(C2CC(O)C(CO)O2)c(=O)[nH]1` (configuration not stated) was tested, and the GI50 was over 5000 µM and the TGI was over 5000 µM. Work on `O=C(N/C(=C/c1ccc(Cl)cc1Cl)c1nc2ccccc2s1)c1ccccc1` yielded a TGI of 9.05 µM. In the case of `CCOC(=O)c1cc2c(n1Cc1cccc(OC)c1)-c1oncc1CCC2`, the GI50 is reported as 2.16 µM and the TGI is reported as over 100 µM. Compound `COc1c(O)cc2oc(-c3ccc(O)cc3)cc(=O)c2c1O` has a TGI of over 100 µM. `COc1cccc(-c2nn(-c3ccccc3)cc2-c2ccnc(NCCCNC(=O)Nc3ccc(Cl)c(Cl)c3)c2)c1` gave a GI50 of 3.1 µM and a TGI of 11.7 µM. With `c1csc(-c2cn3nc(-c4c[nH]c5ccccc45)sc3n2)c1` the GI50 was 1.21 µM and the TGI was 17 µM. Work on `COc1cc2ccccc2oc1=O` yielded a TGI of over 100 µM. In the case of `N#CCCN(CCCN(CCCN(C(=O)Nc1ccccc1)c1ccccc1)C(=O)Nc1ccccc1)C(=O)Nc1ccccc1`, the TGI is reported as over 100 µM. Work on `COc1ccc(-c2nc(-c3ccccc3)c(-c3ccccc3)[nH]2)cc1OC1CCCC1` yielded a GI50 of over 100 µM and a TGI of over 100 µM.

The compounds below were run on SN12C renal (assay: inhibition of tumour cell growth, NCI panel, 48 h).
With `C[C@]12CCc3sc(NCCc4ccccc4)nc3C1=CC[C@@H]1[C@@H]2CC[C@]2(C)C(=O)CC[C@@H]12` the GI50 was 2.89 µM and the TGI was over 100 µM. In the case of `COc1cccc(C2=C(c3c(C)n(C)c4ccccc34)C(=O)NC2=O)c1`, the GI50 is reported as over 25 µM and the TGI is reported as over 25 µM. `CCN(Cc1ccc(F)cc1)c1ccc(CO)c(F)c1` showed a GI50 of 19.5 µM and a TGI of 99.1 µM. For `O=C(Cn1c(=O)c(-c2ccccc2)nc2ccccc21)Nc1ccc(F)cc1`, the GI50 was 77.5 µM and the TGI was over 100 µM. `CN(C)CCNC(=O)c1cc([N+](=O)[O-])cc2c1Oc1ccccc1O2` gave a TGI of over 100 µM. `COc1cccc2c1C(=O)c1c(O)c3c(c(O)c1C2=O)CC(O)(C(O)CO)CC3OC1CC(N2CCOCC2)C(O)C(C)O1` (configuration not stated) was tested, and the GI50 was 0.0186 µM. For `O=C1C(N2CC2)=C(N2CC2)C(=O)C(N2CC2)=C1N1CC1`, the GI50 was under 0.0228 µM and the TGI was 1.45 µM. `O=C(O)C1OC1(c1cccc(Cl)c1)c1ccccc1Cl` (configuration not stated) was tested, and the TGI was 56.3 µM. `CCCCC[C@H]1C/C=C2/C(=O)C=C[C@@H]2C/C=C\CCCC(=O)O[C@@H](CCCCC)C/C=C2/C(=O)C=C[C@@H]2C/C=C\CCCC(=O)O1` showed a GI50 of 0.105 µM and a TGI of 0.796 µM. `O=C(Nc1cccc(-n2cc(-c3ccncc3)c(-c3cc(O)cc(Cl)c3)n2)c1)Nc1ccc(Cl)c(C(F)(F)F)c1` showed a GI50 of 3.45 µM and a TGI of 17.2 µM. `COC1/C=C/C(C)C(C(C)C(OC)C(C)CCC(=O)C(C)C(C/C=C/N(C)C=O)OC)OC(=O)/C=C/C=C(\C)CC(OC)CC2=CC(=O)O[C@H](C2)C(C)C(OC)CC(OC)/C=C/C(C)C(OC)C1` (some centres not stated) gave a GI50 of 0.143 µM and a TGI of 47.5 µM. Work on `CNCCCn1c2c(c3ccc([N+](=O)[O-])cc3c1=O)C(=O)c1cc(OC)cnc1-2` yielded a GI50 of 0.0461 µM and a TGI of 1.2 µM. In the case of `C#CC1(O)C(COP(=O)(O)OC(COCCCCCCCCCCCCCCCCCC)COP(=O)(O)OCC2OC(n3cc(F)c(=O)[nH]c3=O)CC2O)OC(n2ccc(N)nc2=O)C1O` (configuration not stated), the TGI is reported as over 65.1 µM. Work on `COc1cc2oc3cc(=O)cc4oc(-c5ccccc5)cc(c2c2c1CCC(c1ccccc1)O2)c43` (configuration not stated) yielded a TGI of over 100 µM. `c1cc2n(n1)CCN2` was tested, and the TGI was 7050 µM. Compound `COc1cc(Nc2c(C#N)cnc3cc(OCCCN4CCN(C)CC4)c(OC)cc23)c(Cl)cc1Cl` has a GI50 of 0.308 µM and a TGI of 14.4 µM. For `O=CN/C=C/c1cccc(O)c1`, the TGI was over 100 µM. In the case of `Nc1ccc2c(SCc3ccc([N+](=O)[O-])cc3)c3ccccc3nc2c1`, the TGI is reported as 34 µM. Compound `COC1=CC(c2ccc[nH]2)=N/C1=C\c1[nH]c(C)c(C(=O)CCCCC(=O)NC(C)(C)C)c1C` has a GI50 of 2.19 µM and a TGI of 7.32 µM. With `O=c1ccn(C2CC(O)C(CO)O2)c(=O)[nH]1` (configuration not stated) the GI50 was over 5000 µM and the TGI was over 5000 µM. `O=C(N/C(=C/c1ccc(Cl)cc1Cl)c1nc2ccccc2s1)c1ccccc1` gave a TGI of 23 µM. Work on `CCOC(=O)c1cc2c(n1Cc1cccc(OC)c1)-c1oncc1CCC2` yielded a GI50 of 6.46 µM and a TGI of over 100 µM. With `COc1c(O)cc2oc(-c3ccc(O)cc3)cc(=O)c2c1O` the TGI was over 100 µM. Work on `COc1cccc(-c2nn(-c3ccccc3)cc2-c2ccnc(NCCCNC(=O)Nc3ccc(Cl)c(Cl)c3)c2)c1` yielded a GI50 of 5.73 µM and a TGI of 25 µM. `c1csc(-c2cn3nc(-c4c[nH]c5ccccc45)sc3n2)c1` was tested, and the GI50 was 1.15 µM and the TGI was over 100 µM. With `COc1cc2ccccc2oc1=O` the TGI was over 100 µM. For `N#CCCN(CCCN(CCCN(C(=O)Nc1ccccc1)c1ccccc1)C(=O)Nc1ccccc1)C(=O)Nc1ccccc1`, the GI50 was over 100 µM and the TGI was over 100 µM. `COc1ccc(-c2nc(-c3ccccc3)c(-c3ccccc3)[nH]2)cc1OC1CCCC1` gave a GI50 of over 100 µM and a TGI of over 100 µM.
